# Test results reported in ChEMBL document CHEMBL1201862, “PubChem BioAssay data set” (2004).
# The source made the active and inactive calls.
# Columns and labels:
# [1] = viability of PTEN-deleted HCT116 cells – cell-based, HCT116 PTEN knockout, dose response (AID 1047); assay type: functional;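 note: HCT116 colon tumor cells with PTEN knocked out; cells exposed to compound for 60 hours before readout; potency for loss of cell viability measured by luminescence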
# [2] = viability of HCT116 lacking mutant beta-catenin – cell-based, human colon tumor, dose response (AID 1045); assay type: functional;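 note: HCT116 colon tumor cells with beta catenin knocked out; cells exposed to compound for 60 hours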
# [3] = biological target: T1, RNA-binding protein pos-1 (Caenorhabditis elegans, UniProt G5EF15); experiment: disruptors of C. elegans POS-1 RNA interaction – biochemical, fluorescence polarization, dose response (AID 1964);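 note: purified POS-1 fused to maltose binding protein made in E. coli; potency of compounds blocking POS-1 binding to fluorescent RNA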
# T1 sequence (G5EF15 whole entry): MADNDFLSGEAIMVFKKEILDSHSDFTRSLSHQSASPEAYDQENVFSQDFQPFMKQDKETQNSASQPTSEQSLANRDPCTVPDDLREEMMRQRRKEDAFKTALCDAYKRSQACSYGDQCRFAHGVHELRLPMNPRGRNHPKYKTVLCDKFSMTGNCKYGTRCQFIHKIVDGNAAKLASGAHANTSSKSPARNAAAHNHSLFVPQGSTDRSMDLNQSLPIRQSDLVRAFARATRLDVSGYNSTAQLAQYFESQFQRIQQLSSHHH
# [4] = biological target: T2, Zinc finger protein mex-5 (Caenorhabditis elegans, UniProt Q9XUB2); experiment: potency of MEX-5 RNA-binding blockers – biochemical, C. elegans, fluorescence polarization, dose response (AID 1960)
# T2 sequence (Q9XUB2 whole entry): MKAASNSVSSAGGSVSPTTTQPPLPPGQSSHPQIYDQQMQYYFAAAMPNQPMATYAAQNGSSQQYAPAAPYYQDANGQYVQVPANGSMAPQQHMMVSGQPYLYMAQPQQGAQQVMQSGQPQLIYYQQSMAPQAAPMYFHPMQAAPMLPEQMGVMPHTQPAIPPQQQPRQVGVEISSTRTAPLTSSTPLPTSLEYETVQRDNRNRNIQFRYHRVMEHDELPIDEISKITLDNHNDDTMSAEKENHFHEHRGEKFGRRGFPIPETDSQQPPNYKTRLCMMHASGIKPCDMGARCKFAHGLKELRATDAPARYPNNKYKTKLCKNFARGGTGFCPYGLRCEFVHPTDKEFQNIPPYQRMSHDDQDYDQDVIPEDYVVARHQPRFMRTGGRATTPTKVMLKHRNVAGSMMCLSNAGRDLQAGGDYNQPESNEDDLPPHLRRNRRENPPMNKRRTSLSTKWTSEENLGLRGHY
# [5] = Trypanosoma cruzi growth suppression in host cells – NIH3T3 host cells, beta-gal luminescence, confirmation (AID 2044); assay type: functional, cell-based;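 note: intracellular parasites grown in NIH/3T3 mouse fibroblasts as host cells; luminescent beta-galactosidase reporter signal from transgenic T. cruzi replicating inside host cells; inhibitors lower the luminescence signal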
# [6] = NIH3T3 cell viability loss – ATP luminescence, mouse fibroblasts, counter-screen, dose response (AID 2010); assay type: functional, cell-based;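 note: cells exposed to compound for about 90 hours before reading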
# [7] = biological target: T3, Replicative DNA helicase DnaB (Mycobacterium tuberculosis, UniProt P9WMR3); experiment: DnaB intein splicing inhibitors, dose response, biochemical, cell-free fluorescence (AID 449749); assay type: functional
# T3 sequence (P9WMR3 whole entry): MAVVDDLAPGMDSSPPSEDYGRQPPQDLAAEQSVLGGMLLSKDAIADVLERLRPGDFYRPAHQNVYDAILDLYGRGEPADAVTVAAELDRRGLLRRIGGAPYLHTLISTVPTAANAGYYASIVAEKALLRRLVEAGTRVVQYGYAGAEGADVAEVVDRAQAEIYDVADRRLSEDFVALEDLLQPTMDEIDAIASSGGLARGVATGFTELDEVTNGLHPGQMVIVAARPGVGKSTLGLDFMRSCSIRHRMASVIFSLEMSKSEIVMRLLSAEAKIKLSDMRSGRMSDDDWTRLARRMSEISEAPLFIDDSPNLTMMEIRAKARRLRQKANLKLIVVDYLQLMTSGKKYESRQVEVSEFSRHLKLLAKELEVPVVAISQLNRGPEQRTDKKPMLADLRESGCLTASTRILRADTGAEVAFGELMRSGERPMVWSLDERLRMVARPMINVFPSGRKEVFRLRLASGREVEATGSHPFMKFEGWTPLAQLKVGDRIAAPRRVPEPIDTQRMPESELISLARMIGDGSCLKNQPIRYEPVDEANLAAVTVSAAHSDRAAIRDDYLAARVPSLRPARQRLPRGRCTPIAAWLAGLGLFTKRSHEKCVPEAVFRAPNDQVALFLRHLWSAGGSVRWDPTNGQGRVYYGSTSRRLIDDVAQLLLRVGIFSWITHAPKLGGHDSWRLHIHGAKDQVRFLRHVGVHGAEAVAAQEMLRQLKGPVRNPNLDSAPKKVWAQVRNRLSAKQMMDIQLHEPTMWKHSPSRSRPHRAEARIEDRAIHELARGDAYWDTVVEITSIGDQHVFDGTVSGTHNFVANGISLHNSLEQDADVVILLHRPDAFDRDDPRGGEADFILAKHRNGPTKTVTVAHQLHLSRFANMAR
# Protein RecA = biological target: T4, Protein RecA (Mycobacterium tuberculosis, UniProt P9WHJ3); experiment: Fluorescence Cell-Free Homogeneous Dose Retest to Identify Inhibitors of RecA-Intein Splicing Activity. [Related pubchem assays (depositor defined):AID2097, AID2223, AID489010, AID492950]; assay type: functional
# T4 sequence (P9WHJ3 whole entry): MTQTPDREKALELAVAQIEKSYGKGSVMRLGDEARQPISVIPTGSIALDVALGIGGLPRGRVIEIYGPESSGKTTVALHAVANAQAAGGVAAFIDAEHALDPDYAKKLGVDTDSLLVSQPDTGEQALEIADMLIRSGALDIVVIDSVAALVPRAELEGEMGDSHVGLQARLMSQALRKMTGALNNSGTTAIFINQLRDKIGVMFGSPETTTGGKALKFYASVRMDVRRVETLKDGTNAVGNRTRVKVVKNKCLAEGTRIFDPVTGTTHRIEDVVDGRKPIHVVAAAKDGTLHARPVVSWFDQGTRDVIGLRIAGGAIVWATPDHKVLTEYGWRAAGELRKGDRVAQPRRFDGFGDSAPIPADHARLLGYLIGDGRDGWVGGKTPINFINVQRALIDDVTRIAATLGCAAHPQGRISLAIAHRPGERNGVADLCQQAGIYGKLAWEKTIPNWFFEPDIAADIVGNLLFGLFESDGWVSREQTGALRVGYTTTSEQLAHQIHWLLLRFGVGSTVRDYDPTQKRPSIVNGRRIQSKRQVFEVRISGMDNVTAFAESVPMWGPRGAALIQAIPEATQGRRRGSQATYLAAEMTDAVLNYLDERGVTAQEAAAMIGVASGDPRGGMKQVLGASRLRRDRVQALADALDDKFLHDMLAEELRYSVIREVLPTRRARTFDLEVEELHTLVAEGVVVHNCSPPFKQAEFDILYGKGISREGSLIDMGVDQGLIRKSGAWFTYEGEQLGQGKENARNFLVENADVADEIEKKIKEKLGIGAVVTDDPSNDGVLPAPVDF
# [8] = luciferase reporter signal suppression in cells – H4 neuroglioma cells, luminescence, dose response (AID 1990); assay type: functional, cell-based
# [9] = system: Streptococcus sp. 'group A'; experiment: Streptococcus pyogenes SK(-)GAS viability under kanamycin – luminescence, BacTiterGlo, confirmation, counter-screen for streptokinase expression inhibitor project, dose response (AID 1900); assay type: functional, organism-based
# [10] = Luminescence Cell-Based Dose Response HTS to Identify Inhibitors of 5'UTR Stem-Loop Driven Prion Protein mRNA Translation in H4 Neuroglioblastoma Cells. [Related pubchem assays: 1827 (Project Summary), 1813 (Primary HTS)]; assay type: functional
# [11] = alpha-synuclein stem-loop luciferase translation blockers – H4 neuroglioma cells, luminescence, confirmation (AID 1988); assay type: functional, cell-based
# Streptokinase A = biological target: T5, Streptokinase A (Streptococcus pyogenes serotype M1, UniProt P10520); experiment: viability-normalized secreted streptokinase activity reduction – plasminogen activation absorbance, OD405, dose response (AID 1914); assay type: functional, Streptococcus pyogenes M1 GAS;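 note: secreted streptokinase activity via plasminogen activation per viability signal from cell pellet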
# T5 sequence (P10520 whole entry): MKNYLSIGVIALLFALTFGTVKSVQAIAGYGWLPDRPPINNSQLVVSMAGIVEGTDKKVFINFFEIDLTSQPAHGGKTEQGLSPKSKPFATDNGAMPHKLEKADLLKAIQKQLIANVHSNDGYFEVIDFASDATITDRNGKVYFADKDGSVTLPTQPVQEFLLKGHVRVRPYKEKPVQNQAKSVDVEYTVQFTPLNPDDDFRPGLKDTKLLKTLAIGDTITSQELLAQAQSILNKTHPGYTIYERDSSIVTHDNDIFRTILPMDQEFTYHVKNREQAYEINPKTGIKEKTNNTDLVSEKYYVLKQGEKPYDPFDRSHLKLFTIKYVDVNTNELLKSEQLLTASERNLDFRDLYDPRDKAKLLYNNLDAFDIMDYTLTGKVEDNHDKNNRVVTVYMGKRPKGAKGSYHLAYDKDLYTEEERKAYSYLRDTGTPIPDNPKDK
# Streptococcus = experiment: GAS UMAA2166 growth inhibition – luminescence, BacTiterGlo, counter-screen for streptokinase expression inhibitor project, dose response (AID 1915); assay type: functional, organism-based;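 note: potency for reduction of bacterial viability or growth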
# [12] = biological target: Heat shock protein HSP 90-alpha (Homo sapiens, UniProt P07900); assay type: functional, organism-based
# INS1 = experiment: INS-1E survival protection against cytokine death – cell-based, luminescence, retest, dose response (AID 449756); assay type: functional; settings: Rattus norvegicus;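 note: cell death triggered by IL-1 beta plus TNF-alpha plus IFN-gamma mixture; protective hits raise ATP signal compared with cytokine alone wells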
# [13] = Luminescence Cell-Based Dose Retest to Confirm Inhibitors of Cancer Stem Cells. [Related pubchem assays (depositor defined):AID2717, AID2721]; assay type: functional; settings: Homo sapiens
# Fatty acid synthase [14] = biological target: T6, Fatty acid synthase (Homo sapiens, UniProt P49327); experiment: inhibition of human FAS-TE enzyme activity – biochemical, endpoint fluorescence intensity, uHTS hits, dose response (AID 624327); assay type: functional;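 note: fluorescence from hydrolysis of an O-methyl fluorescein acyl ester substrate by the enzyme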
# Fatty acid synthase [15] = biological target: T6, Fatty acid synthase; experiment: inhibition of human FAS-TE enzyme activity – biochemical, kinetic fluorescence intensity, dose response (AID 624326); assay type: functional;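 note: rate of fluorescence rise from hydrolysis of a fluorogenic O-methyl fluorescein ester substrate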
# [16] = viability of uninfected HEp-2 cells – cell-based, HTS, cytotoxicity control for RSV inhibitor project, dose response (AID 2410); assay type: functional; settings: human respiratory syncytial virus
# Cytochrome P450 2C9 = Cytochrome P450 2C9 (Homo sapiens, UniProt P11712)
# [17] = P. falciparum Dd2 growth inhibitors, dose response, SYBR Green, cherry-picked samples (AID 1159567); assay type: functional, cell-based
# T6 sequence (P49327 whole entry): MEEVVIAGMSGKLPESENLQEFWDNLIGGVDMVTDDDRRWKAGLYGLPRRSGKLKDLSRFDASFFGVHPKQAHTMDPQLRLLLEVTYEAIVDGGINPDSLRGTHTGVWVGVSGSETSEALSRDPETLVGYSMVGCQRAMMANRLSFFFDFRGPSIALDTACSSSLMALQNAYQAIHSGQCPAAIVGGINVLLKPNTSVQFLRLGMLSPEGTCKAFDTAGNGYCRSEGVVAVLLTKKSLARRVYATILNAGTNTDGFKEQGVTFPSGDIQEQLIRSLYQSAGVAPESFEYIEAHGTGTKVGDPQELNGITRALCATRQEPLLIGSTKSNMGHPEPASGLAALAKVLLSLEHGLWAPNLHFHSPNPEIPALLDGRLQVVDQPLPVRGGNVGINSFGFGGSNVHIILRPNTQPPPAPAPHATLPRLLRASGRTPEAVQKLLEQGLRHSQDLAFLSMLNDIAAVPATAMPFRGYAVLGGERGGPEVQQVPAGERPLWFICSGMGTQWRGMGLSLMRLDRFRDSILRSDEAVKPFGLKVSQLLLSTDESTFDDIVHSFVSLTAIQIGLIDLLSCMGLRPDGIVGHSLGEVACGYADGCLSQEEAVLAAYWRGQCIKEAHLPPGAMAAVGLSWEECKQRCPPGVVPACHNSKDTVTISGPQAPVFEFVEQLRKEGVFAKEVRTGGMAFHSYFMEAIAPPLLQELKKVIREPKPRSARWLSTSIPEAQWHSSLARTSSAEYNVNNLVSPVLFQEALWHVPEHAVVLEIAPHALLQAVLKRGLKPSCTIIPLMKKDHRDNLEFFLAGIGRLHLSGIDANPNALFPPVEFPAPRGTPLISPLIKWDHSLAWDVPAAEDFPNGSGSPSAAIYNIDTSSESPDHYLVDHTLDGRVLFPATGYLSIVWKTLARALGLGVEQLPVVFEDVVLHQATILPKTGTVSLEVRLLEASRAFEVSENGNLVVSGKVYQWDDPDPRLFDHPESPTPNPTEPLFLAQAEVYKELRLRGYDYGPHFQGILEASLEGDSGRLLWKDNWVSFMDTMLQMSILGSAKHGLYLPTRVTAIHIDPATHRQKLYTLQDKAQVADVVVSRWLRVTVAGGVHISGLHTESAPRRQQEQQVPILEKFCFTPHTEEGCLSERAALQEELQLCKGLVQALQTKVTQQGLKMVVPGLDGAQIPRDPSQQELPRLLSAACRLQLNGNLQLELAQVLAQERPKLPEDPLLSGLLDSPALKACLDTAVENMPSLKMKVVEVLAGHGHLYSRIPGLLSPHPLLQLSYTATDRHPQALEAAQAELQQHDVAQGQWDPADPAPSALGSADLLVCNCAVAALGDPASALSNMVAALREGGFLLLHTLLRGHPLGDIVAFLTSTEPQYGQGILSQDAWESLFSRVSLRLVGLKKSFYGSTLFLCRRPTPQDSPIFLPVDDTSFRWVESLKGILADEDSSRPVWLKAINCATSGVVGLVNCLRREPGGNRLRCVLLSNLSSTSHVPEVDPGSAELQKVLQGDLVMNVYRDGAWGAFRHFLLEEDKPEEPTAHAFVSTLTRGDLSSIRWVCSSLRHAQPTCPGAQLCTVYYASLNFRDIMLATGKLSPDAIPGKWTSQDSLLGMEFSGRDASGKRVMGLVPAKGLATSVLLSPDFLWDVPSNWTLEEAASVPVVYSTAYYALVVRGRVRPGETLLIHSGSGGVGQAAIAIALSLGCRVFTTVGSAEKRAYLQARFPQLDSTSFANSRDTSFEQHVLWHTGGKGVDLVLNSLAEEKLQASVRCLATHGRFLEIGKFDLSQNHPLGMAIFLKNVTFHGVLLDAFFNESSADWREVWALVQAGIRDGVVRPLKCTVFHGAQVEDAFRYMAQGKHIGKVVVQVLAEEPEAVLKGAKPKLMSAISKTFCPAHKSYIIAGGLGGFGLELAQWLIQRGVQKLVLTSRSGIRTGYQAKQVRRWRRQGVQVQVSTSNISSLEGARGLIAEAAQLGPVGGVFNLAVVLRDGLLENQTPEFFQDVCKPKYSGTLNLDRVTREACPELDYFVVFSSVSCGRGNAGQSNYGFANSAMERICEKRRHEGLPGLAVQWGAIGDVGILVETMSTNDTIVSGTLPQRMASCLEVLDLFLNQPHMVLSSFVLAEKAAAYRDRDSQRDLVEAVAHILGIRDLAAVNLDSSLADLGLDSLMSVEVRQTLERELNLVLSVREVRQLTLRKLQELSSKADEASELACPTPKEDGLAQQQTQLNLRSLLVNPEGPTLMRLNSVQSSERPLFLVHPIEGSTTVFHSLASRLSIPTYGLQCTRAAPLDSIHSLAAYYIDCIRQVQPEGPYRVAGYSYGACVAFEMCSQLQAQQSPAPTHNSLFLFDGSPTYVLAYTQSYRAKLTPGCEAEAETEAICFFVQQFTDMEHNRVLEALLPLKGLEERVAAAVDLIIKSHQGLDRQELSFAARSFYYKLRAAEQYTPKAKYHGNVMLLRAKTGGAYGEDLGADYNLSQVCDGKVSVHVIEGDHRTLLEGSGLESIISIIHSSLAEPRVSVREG
# Chain of Cytochrome P450 2C9 (P11712 whole entry): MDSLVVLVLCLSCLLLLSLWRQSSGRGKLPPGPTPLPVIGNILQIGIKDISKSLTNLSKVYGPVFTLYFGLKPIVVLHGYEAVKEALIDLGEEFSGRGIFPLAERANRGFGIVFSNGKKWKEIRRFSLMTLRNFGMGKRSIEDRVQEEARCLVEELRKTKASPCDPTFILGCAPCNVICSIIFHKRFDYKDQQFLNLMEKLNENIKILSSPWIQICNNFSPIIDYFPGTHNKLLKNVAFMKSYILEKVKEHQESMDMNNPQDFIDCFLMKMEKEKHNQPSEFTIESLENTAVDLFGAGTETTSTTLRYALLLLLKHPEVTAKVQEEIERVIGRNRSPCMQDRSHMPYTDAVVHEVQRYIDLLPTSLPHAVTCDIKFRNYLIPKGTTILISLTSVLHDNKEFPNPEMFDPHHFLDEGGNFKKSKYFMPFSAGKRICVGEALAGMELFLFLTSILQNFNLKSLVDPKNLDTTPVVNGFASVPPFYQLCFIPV
smiles,measurement,setting,value
O=C(CCC(=O)CCN1CCCCC1)CCN1CCCCC1,EC50,[1],33.1 µM (active)
same,EC50,[2],32.6 µM (active)
Cc1cccn2c(=O)c3cc(C(=O)NC4CCCCC4)c(=N)n(Cc4ccccc4)c3nc12,EC50,[3],25.9 µM (active)
same,EC50,[4],8.47 µM (active)
same,EC50,[5],1.63 µM (active)
same,EC50,[6],> 60 µM (not active)
COc1ccc(S(=O)(=O)C(C#N)c2nc3ccccc3nc2N2CCC(C)CC2)cc1 (stereo not drawn),EC50,[3],6.4 µM (active)
same,EC50,[4],8.74 µM (active)
O=C(c1c[nH]c(C(=O)C(Cl)(Cl)Cl)c1)c1ccccc1Cl,EC50,[1],26.5 µM (active)
same,EC50,[2],24.9 µM (active)
same,AC50,[7],7.85 µM (active)
same,EC50,Protein RecA,6.27 µM (active)
N#C/C(=C/c1ccc(CNS(=O)(=O)c2ccccc2)o1)C(=O)NCc1ccccc1,EC50,[3],> 300 µM (not active)
same,EC50,[4],> 300 µM (not active)
O=Nc1c(O)c2ccccc2c2ccccc12,EC50,[8],8.1 µM (active)
same,EC50,[9],1.68 µM (active)
same,EC50,[10],> 120 µM (not active)
same,EC50,[11],> 120 µM (not active)
same,EC50,Streptokinase A,7.11 µM (active)
same,EC50,Streptococcus,10.8 µM (active)
same,AC50,[7],4.39 µM (active)
same,AC50,[12],1.03 µM (active)
same,EC50,Protein RecA,5.3 µM (active)
same,AC50,INS1,7.86 µM (active)
CC(C)(C)c1cc(NCc2ccccn2)n2ncc(-c3ccccc3)c2n1,EC50,[9],0.722 µM (active)
same,EC50,Streptokinase A,30 µM (active)
same,EC50,Streptococcus,13.8 µM (active)
same,AC50,[13],6.82 µM (active)
same,AC50,[12],1.63 µM (active)
COc1cccc(-c2nc(Oc3cc(C)cc(C)c3)c3ccccc3n2)c1O,EC50,[1],8.12 µM (active)
same,EC50,[2],13.7 µM (active)
O=C1C=CC(=O)C2C1C1(Cl)C(Cl)=C(Cl)C2(Cl)C1(Cl)Cl (stereo not drawn),AC50,[12],7.83 µM (active)
same,IC50,Fatty acid synthase [14],14.8 µM (active)
same,IC50,Fatty acid synthase [15],13.8 µM (active)
COc1ccc(/N=C/c2cc3c(cc2O)OC(N)=C(C#N)C3c2ccccc2)cc1 (stereo not drawn),CC50,[16],8.02 µM (active)
same,EC50,[3],> 300 µM (not active)
same,EC50,[4],> 300 µM (not active)
COc1cc(/C=N/O)cc(Br)c1OCc1cccc(Cl)c1,AC50,[13],5.56 µM (active)
same,AC50,[12],7.99 µM (active)
same,AC50,Cytochrome P450 2C9,inconclusive
COc1ccc2c3c([nH]c2c1)[C@@H](CO)N(Cc1nccs1)CC31CCN(Cc2nccs2)CC1,AC50,[17],4.94 µM (active)
C[C@H](CO)N1C[C@H](C)[C@H](CN(C)S(=O)(=O)c2cccs2)Oc2ccc(NC(=O)Cc3cn(C)c4ccccc34)cc2C1=O,AC50,[17],5.02 µM (active)
C/C=C/c1ccc2n(c1=O)C[C@@H]1[C@@H](CO)[C@H](C(=O)N3CCC(Cc4ccccc4)CC3)N(CCC)[C@H]21.C/C=C\c1ccc2n(c1=O)C[C@@H]1[C@@H](CO)[C@H](C(=O)N3CCC(Cc4ccccc4)CC3)N(CCC)[C@H]21,AC50,[17],4.32 µM (active)
